Results: patent publication US20210213041A1, “REPEAT RNA AS BIOMARKERS OF TUMOR IMMUNE RESPONSE” (The General Hospital Corporation, priority 2018, published 2021)

System: melanoma
Experiment: Immunotherapy response of melanoma patients by standard clinical imaging criteria (CT scan change), tumors classed by HSATII RNA-ISH
Format: in vivo, human
Protocol: All combined RNA-ISH and IHC assays are performed as follows: Monoclonal antibodies for immune cells (T-cell subsets CD3, CD4, CD8, FOXP3; Macrophages CD68, CD163; B-cells CD20; NK cells CD16, CD56) and RNA ISH probes for repeat RNAs (HSATII, HERV-K, HERV-H, LINE1) were sequentially applied on a single histologic slide, and contrasting chromogens were used to visualize the antibody: brown (diaminobenzidine [DAB]) for immune marker and RNA: red (fast red) for repeat RNA. Paraffin-embedded sections were mounted on coated slides and were placed in an oven for 60 minutes at 60° C. The sequential double-staining protocol was performed using the Leica Bond Rx automated immunostainer. […]
As shown herein, HSATII low melanomas respond to immunotherapy including anti-PD1/PDL1 and anti-CTLA4 therapies (FIG. 5). Briefly, a cohort of 20 melanoma patients who received either anti-PD1/PDL1 or anti-CTLA4 therapy that had formalin fixed paraffin embedded (FFPE) tissue were evaluated with HSATII RNA-ISH combined with CD3 T cell IHC assay. Tumors were evaluated for HSATII RNA levels (HIGH vs LOW) and CD3 T cell infiltrates quantitated by manual counting of cells in a 400×200 micron area by a pathologist. […] Tumors were evaluated for HSATII RNA levels (HIGH vs LOW) and CD163 macrophage infiltrates quantitated by manual counting of cells in a 400×200 micron area by a pathologist.

Substance | immunotherapy response as determined by standard clinical imaging criteria (CT scan change) (HSATII LOW tumors (high CD3 T-cells)) | immunotherapy response as determined by standard clinical imaging criteria (CT scan change) (HSATII HIGH tumors (low CD3 T-cells))
ipilimumab | responder | 
nivolumab |  | non-responder
